This passage reports IC50 and EC50 results from US8987257B2 (Novartis AG, priority 2011, dated 2015).

By IC50 is commonly meant the concentration that gives 50% inhibition. One may read the EC50 as the concentration at which the effect is half-maximal. Low readings indicate a more potent agent, high ones a less potent agent.

For one experiment, the target named is PI3Kα (Homo sapiens (Human), UniProt P42336). Nature of the experiment: Test 1: PI3 Kinase Assay (PI3K KinaseGlo assay). The experiment is classed as biochemical. The settings on record: 1 μM ATP. A general note: In Kinase-Glo more light means more ATP remaining.
Sequence of PI3Kα (P42336 other isoform, or with tags, fused parts or gaps): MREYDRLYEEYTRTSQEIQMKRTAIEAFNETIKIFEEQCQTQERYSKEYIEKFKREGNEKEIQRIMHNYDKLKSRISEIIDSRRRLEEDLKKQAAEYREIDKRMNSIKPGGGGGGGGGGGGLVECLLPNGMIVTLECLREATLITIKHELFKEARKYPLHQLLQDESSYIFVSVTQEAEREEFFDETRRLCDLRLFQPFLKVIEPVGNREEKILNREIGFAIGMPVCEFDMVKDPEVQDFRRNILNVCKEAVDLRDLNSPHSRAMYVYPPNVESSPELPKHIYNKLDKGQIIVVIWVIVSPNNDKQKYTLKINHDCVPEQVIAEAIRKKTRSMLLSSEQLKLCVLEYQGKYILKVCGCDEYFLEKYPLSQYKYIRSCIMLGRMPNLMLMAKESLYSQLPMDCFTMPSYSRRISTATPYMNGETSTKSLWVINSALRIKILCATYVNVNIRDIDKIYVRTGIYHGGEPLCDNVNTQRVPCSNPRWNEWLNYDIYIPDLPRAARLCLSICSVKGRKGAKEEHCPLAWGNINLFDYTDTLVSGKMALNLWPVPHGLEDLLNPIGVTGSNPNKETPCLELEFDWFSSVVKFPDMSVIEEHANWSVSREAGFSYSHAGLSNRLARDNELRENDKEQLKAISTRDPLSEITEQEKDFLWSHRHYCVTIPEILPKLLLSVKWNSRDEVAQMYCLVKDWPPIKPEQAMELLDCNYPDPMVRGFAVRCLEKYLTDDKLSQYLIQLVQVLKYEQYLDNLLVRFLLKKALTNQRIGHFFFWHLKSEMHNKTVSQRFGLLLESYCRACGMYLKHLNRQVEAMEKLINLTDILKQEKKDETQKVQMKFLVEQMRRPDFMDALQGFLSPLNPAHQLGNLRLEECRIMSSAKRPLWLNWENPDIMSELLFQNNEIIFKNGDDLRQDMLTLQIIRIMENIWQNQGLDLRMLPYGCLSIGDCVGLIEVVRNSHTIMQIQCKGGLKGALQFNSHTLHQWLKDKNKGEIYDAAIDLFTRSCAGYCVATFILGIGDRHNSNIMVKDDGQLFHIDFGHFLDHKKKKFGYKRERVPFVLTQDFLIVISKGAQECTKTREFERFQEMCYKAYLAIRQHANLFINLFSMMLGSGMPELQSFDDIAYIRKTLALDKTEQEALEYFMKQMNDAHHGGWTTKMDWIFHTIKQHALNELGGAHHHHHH
The target in the next experiment is FRAP1/mTOR (Homo sapiens (Human), UniProt P42345). Nature of the experiment: Test 2: mTOR Biochemical Assay (FRAP1/mTOR TR-FRET tracer assay). The experiment is classed as binding. Conditions: mTOR Kinase Tracer 314. (In TR-FRET formats the signal depends on donor and acceptor labels being close together.)
Sequence of FRAP1/mTOR (P42345 1360-2549): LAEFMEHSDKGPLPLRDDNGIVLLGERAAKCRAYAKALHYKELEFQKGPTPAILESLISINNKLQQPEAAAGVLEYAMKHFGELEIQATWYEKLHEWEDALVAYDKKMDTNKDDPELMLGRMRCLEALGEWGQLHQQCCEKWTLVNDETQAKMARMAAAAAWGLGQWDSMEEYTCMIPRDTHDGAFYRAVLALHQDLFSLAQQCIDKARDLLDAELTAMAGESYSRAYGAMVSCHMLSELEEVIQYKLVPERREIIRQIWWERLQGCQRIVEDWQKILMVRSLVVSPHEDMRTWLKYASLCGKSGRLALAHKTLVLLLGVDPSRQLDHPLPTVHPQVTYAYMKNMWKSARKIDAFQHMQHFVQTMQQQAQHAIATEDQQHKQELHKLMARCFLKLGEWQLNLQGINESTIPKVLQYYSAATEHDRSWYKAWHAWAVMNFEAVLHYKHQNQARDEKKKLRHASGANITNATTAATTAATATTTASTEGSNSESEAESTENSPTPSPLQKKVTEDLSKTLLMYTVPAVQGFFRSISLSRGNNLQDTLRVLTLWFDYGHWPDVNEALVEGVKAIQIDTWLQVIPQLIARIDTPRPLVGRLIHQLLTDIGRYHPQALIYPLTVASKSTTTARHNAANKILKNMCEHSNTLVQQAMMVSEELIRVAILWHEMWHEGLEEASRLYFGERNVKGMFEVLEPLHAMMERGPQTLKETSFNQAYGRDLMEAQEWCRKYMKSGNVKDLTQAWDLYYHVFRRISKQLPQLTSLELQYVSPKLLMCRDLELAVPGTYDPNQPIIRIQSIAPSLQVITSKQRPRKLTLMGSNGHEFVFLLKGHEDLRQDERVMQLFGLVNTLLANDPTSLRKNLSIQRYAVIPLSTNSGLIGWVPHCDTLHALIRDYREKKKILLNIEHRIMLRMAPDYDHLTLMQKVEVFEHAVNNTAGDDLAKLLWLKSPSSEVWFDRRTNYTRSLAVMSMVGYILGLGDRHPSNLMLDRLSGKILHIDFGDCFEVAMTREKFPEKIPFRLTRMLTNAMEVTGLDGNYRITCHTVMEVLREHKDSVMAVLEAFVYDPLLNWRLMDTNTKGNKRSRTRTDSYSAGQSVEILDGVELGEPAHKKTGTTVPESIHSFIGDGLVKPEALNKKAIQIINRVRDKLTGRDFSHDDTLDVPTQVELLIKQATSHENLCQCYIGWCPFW
In experiment [1] the test system is constitutively active mTOR. Nature of the experiment: Test 3: TSC Assay (high content imaging of phospho-S6 (240/244) in TSC1−/− MEFs). Conditions: Mus musculus, pS6 240/244 staining, 2 hrs compound treatment. The experiment is classed as cell-based.
Method: This assay generates IC50 values for compounds that inhibit mTOR.
Quantification of pS6 Staining Using High-Content Imaging and Analysis
Day 0: Cell plating. Subconfluent TSC1−/− MEFs are harvested by trypsinization, resuspended in growth medium, and counted. […] The plates are briefly spun down and placed at 37° C. and 5% CO2. • 2. Day 1: Cell plates are washed into a PBS starve solution (contains glucose, sodium bicarbonate, HEPES and phenol red) using a 384-well plate washer. The wash protocol aspirates the volume down to 30 μL/well before dispensing 60 μL/well of the PBS starve solution. Aspiration and dispensing steps are repeated 8 times and a final volume of 30 μL/well is left. The cell plates are placed at 37° C. and 5% CO2 for 2 hrs. • Compound treatment. Compound dose responses are prepared in DMSO. The dose responses are then diluted 1:50 in medium. 10 ul of the diluted compound is added to 30 ul of cells, yielding a final 1:200 dilution of the original compound and final of 0.5% DMSO. Compound-treatments are performed in triplicates. The plates are placed at 37° C. and 5% CO2 for 2 hrs. Cells are then fixed by adding 10 μL/well 5× concentrated Mirsky's fixative. […] The cell plates are briefly spun down and incubated for 1 h at room temperature. Cells are then washed using a 384-well plate washer using a protocol which aspirates the volume down to 30 μL/well before dispensing 60 μL/well 1×TBS. Aspiration and dispensing steps are repeated 8 times and then an additional aspiration step leaves a final volume of 10 μL/well. Block buffer (1×TBS+0.1% Triton X-100+0.1% BSA) is then added at 25 μL/well and the plates are incubated at room temperature for 30 min. The cell plates are then aspirated down to 10 μL/well. […] Plates are incubated overnight at 4° C. • 3. […] The bottom of the plate is cleaned with 70% ethanol and then imaged using the InCell 1000 automated epifluorescence microscope. […] Cy5 images are acquired using an excitation of 620 nm (Chroma 620—60× filter), an emission of 700 nm (Chroma HQ700—75M filter) and an exposure time of 200 ms. A double band pass mirror is used for all images. • 4. Image analysis: The InCell Analysis software is used to analyze the images using the Dual Object algorithm. […] The Cy5 fluorescence intensity inside the collar is measured (cell intensity) and results are reported on an “Average per cell” basis. • 5. IC50 calculation: IC50s are calculated by plotting the cell intensity values on the y-axis with dose response values on the x-axis. IC50 values represent compound potency against mTOR.
The subject of a further experiment is H4 mCherry-GFP-LC3 cells. Briefly: Test 4: Autophagy Assay (mCherry-GFP-LC3 reporter, high-content imaging). The experiment is classed as cell-based. Conditions: Homo sapiens, Table 4 (unit inferred), mCherry-positive LC3 puncta/cell, 16-18 h.

A value given as a limit tells only on which side of the number the result lay.

Method for FRAP1/mTOR: IC50s for mTOR interacting compounds were assessed using the FRAP1/mTOR TR-FRET tracer assay (Invitrogen by Life Technologies). […] Compounds were serially diluted in DMSO (12-point, 4× dilution factor) and 1 μL of diluted compound was then added to each well and mixed by pipetting using a Biomek FX (Beckman Coulter).
Method for PI3Kα: L-a-phosphatidylinositol (PI), provided as 10 mg/ml solution in methanol, was transferred into a glass tube and dried under nitrogen beam. It was then resuspended in 3% OctylGlucoside (OG) by vortexing and stored at 4° C. The KinaseGlo Luminescent Kinase Assay (Promega, Madison/WI, USA) is a homogeneous HTS method of measuring kinase activity by quantifying the amount of ATP remaining in solution following a kinase reaction.
Kinase reactions were started by addition of 5 μl of ATP-mix containing in a final volume 10 μL 10 mM TRIS-HCl pH 7.5, 3 mM MgCl2, 50 mM NaCl, 0.05% CHAPS, 1 mM DTT and 1 μM ATP, and occurred at room temperature.
The PI3Kα construct is a fusion of p85α iSH2 domain and the respective p110 isoform. The p85α fragment and p110 isoform gene were generated by PCR from first strand cDNA generated by RT-PCR from commercial RNA from placenta, testis and brain as described below.
The p85 fragment was derived from plasmid p1661-2 digested with Nhe/Spe. The p110α fragment derived from its clone was verified by sequencing and used in LR410 as a SpeI/HindIII fragment. For the generation of the baculovirus expression vector LR410 the gateway LR reaction to transfer the insert into the Gateway adapted pBlueBac4.5 (Invitrogen) vector was used. The cloning vector pBlueBac4.5 (Invitrogen) was digested with Nhe/HindIII. […] The two reverse primers overlap and incorporate a 12×Gly linker and the N-terminal sequence of the p110α gene to the SpeI site. The PCR fragment was cloned into pCR2.1 TOPO (Invitrogen). Of the resulting clones, p1661-2 was determined to be correct by sequencing. This plasmid was digested with Nhe and SpeI and the resulting fragment was gel-isolated and purified for sub-cloning.
PI3Kα was purified in two chromatographic steps: immobilized metal affinity chromatography (IMAC) on a Ni sepharose resin (GE Healthcare) and gel filtration utilizing a Superdex 200 26/60 column (GE Healthcare). All buffers were chilled to 4° C. and lysis was performed chilled on ice. Column fractionation was performed at room temperature.

Regarding `C[C@H]1COCCN1c1nc(N2CC3CCC(C2)O3)nc2[nH]c(-c3cccc4[nH]ccc34)nc12` [Example 52, 8-(1H-Indol-4-yl)-6-((S)-3-methyl-morpholin-4-yl)-2-(8-oxa-3-aza-bicyclo[3.2.1]oct-3-yl)-9H-purine], the IC50 was determined as 420 nM against PI3Kα, 50 nM against FRAP1/mTOR and 88 nM in experiment [1]. The EC50 in the experiment with H4 mCherry-GFP-LC3 cells came out at 386 nM.

With `c1cc2ccc(-c3nc4c(N5C6CCC5COC6)nc(N5CCOCC5)nc4[nH]3)cc2[nH]1` [Example 53, 8-(1H-Indol-6-yl)-2-morpholin-4-yl-6-(3-oxa-8-aza-bicyclo[3.2.1]oct-8-yl)-9H-purine], the IC50 against PI3Kα is above 9100 nM; against FRAP1/mTOR it was 190 nM; in experiment [1], 528 nM. Moreover, in the experiment with H4 mCherry-GFP-LC3 cells, the EC50 stood at 782 nM.

Turning to `c1cc(-c2nc3c(N4C5CCC4COC5)nc(N4CCOCC4)nc3[nH]2)c2cc[nH]c2c1` [Example 54, 8-(1H-Indol-4-yl)-2-morpholin-4-yl-6-(3-oxa-8-aza-bicyclo[3.2.1]oct-8-yl)-9H-purine], the IC50 at PI3Kα turned out to be 5790 nM; on FRAP1/mTOR it was 150 nM; in experiment [1] it was 309 nM. Moreover, the EC50 in the experiment on H4 mCherry-GFP-LC3 cells stood at 1250 nM.

As for `C[C@@H]1COCCN1c1nc(N2CCOC[C@@H]2C)nc2[nH]c(-c3cccc4[nH]ccc34)cc12` [Example 55, 6-(1H-Indol-4-yl)-4-((R)-3-methyl-morpholin-4-yl)-2-((S)-3-methyl-morpholin-4-yl)-7H-pyrrolo[2,3-d]pyrimidine], the half-maximal inhibitory concentration (IC50) is 1440 nM against PI3Kα, 2670 nM on FRAP1/mTOR and 71 nM in experiment [1]. The compound also showed an EC50 in the experiment with H4 mCherry-GFP-LC3 cells of 1000 nM.

As for `c1cc(-c2cc3c(N4CCOCC4)nc(N4CCOCC4)nc3[nH]2)c2cc[nH]c2c1` [Example 56, 6-(1H-Indol-4-yl)-2,4-di-morpholin-4-yl-7H-pyrrolo[2,3-d]pyrimidine], the IC50 at PI3Kα turned out to be 2010 nM; at FRAP1/mTOR it was 2390 nM; in experiment [1] it was 174 nM. The compound also returned an EC50 in the experiment on H4 mCherry-GFP-LC3 cells of 3650 nM.
